# Test results as given in patent publication US5686486A, “4-hydroxy-benzopyran-2-ones and 4-hydroxy-cycloalkyl[b]pyran-2-ones useful to treat retroviral infections” (priority 1995, dated 1997).
# Where “and” joins values, the source holds several entries; their conditions need not be identical. Equal values may be shown once. Read-outs that look alike come from different tables or passages of the source.
# Experiments:
# HIV-1 protease [1] = target: T1, HIV-1 protease (Human immunodeficiency virus type 1 group M subtype B, UniProt P04585); test: biochemical; conditions: for inhibition at 0.37 µM: read-out: HIV-1 Protease % Inhib, dose 0.370 uM; for inhibition at 1.1 µM: read-out: HIV-1 Protease % Inhib, dose 1.100 uM; for inhibition at 3.3 µM: read-out: HIV-1 Protease % Inhib, dose 3.300 uM; for inhibition at 10 µM: read-out: HIV-1 Protease % Inhib, dose 10.000 uM; for inhibition at 30 µM: read-out: HIV-1 Protease % Inhib, dose 30.000 uM; for inhibition at 0.123 µM: read-out: HIV-1 Protease % Inhib, dose 0.123 uM
# Procedure, shortened: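 Percent inhibition derived from fluorescent cleavage product separated by filtration after streptavidin-bead capture of intact biotin/FITC substrate. Reaction: enzyme (10 μl, 0.1 μM stock) with substrate (20 μl, 0.2 μM stock) and compound, 1 h at room temperature in dark, pH 5.5 acetate buffer with 1.0 M NaCl and 0.05% NP-40.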
# HIV-1 protease [2] = target: T1, HIV-1 protease; test: biochemical
# Procedure, shortened: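 Enzyme (40 nM stock) and substrate (200 μM stock) incubated with inhibitor, 24–48 two-fold serial concentrations, for 90 min at room temperature, then quenched with avidin beads. Nonlinear least-squares analysis gives Ki; a known-Ki inhibitor validates each run.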
Structure (SMILES),inhibition at 0.37 µM (HIV-1 protease [1]) [%],inhibition at 1.1 µM (HIV-1 protease [1]) [%],inhibition at 3.3 µM (HIV-1 protease [1]) [%],inhibition at 10 µM (HIV-1 protease [1]) [%],inhibition at 30 µM (HIV-1 protease [1]) [%],Ki (HIV-1 protease [2]; read-out: HIV-1 FITC KI),"inhibition at 1 µM (HIV-1 protease [1]; read-out: HIV-1 Protease % Inhib, dose 1.000 uM) [%]","inhibition at 100 µM (HIV-1 protease [1]; read-out: HIV-1 Protease % Inhib, dose 100.000 uM) [%]",Ki (HIV-1 protease [2]; HIV-1 FITC KI),inhibition at 0.123 µM (HIV-1 protease [1]) [%],HIV-1 Protease % Inhib (HIV-1 protease [1]; dose 0.123 uM) [%],HIV-1 Protease % Inhib (HIV-1 protease [1]; dose 0.370 uM) [%],HIV-1 Protease % Inhib (HIV-1 protease [1]; dose 1.100 uM) [%],HIV-1 Protease % Inhib (HIV-1 protease [1]; dose 3.300 uM) [%],HIV-1 Protease % Inhib (HIV-1 protease [1]; dose 10.000 uM) [%],HIV-1 Protease % Inhib (HIV-1 protease [1]; dose 30.000 uM) [%]
"O=c1oc2c(c(O)c1C(c1cccc(NS(=O)(=O)c3cccc(S(=O)(=O)N(Cc4ccccc4)Cc4ccccc4)c3)c1)C1CC1)CCCCCC2 (centres unmarked) [Example 413, N-[3-[Cyclopropyl(5,6,7,8,9,10-hexahydro-4-hydroxy-2-oxo-2H-cycloocta[b]pyran-3-yl)-methyl]phenyl]-(3-N,N-dibenzylbenzenesulfonyl)benzenesulfonamide]",17.4,43.1,77.7,95.2,92.7,104 nM,,,,,,,,,,
"C=CS(=O)(=O)Nc1cccc(C(CC)c2c(O)c3ccccc3oc2=O)c1 (centres unmarked) [Example 137, Ethenesulfonic acid (3-(1-(4-hydroxy-2-oxo-2H-chromen-3-yl)-propyl)-phenyl)-amide]",,,,62.9,,,11.3,89.1,1750 nM and 2200 nM,,,,,,,
"O=c1oc2c(c(O)c1C(c1cccc(NS(=O)(=O)c3ccc(NO)cc3)c1)C1CC1)CCCCCC2 (centres unmarked) [Example 348 (Second Title Compound), N-[3-[cyclopropyl(5,6,7,8,9,10-hexahydro-4-hydroxy-2-oxo-2H-cycloocta[b]pyran-3-yl)methyl]phenyl]4-(hydroxyamino)-benzenesulfonamide]",81,102,109,113,98.7,1.7 nM,,,,38.6,,,,,,
"CC(C)(C)OC(=O)N[C@@H](Cc1c[nH]cn1)C(=O)Nc1cccc(C(c2c(O)c3c(oc2=O)CCCCCC3)C2CC2)c1 (single isomer, unassigned) [Example 241, Carbamic acid, [2-[[3-(R or S)-[Cyclopropyl(5,6,7,8,9,10-hexahydro-4-hydroxy-2-oxo-2H-cycloocta[b]pyran-3-yl)methyl]phenyl]amino]-1-(S)-(1H-imidazol-4-ylmethyl)-2-oxoethyl]-, 1,1 dimethyl ethyl ester]",,,,,,1.32 nM and 1.9 nM,,,,,81.78,91.77,98.65,101.51,110.04,104.34
"CC(C)CCC1CCCCCc2c1oc(=O)c(C(c1ccccc1)C1CC1)c2O (centres unmarked) [Example 132, 3-(Cyclopropyl-phenylmethyl)-4-hydroxy-10-(3-methyl-butyl)-5,6,7,8,9,10-hexahydro-cycloocta[b]pyran-2-one]",39.5,76.2,98.1,104,103,50 nM,,,,,,,,,,
"CCC(=O)C1CCCCCc2c1oc(=O)c(C(c1ccccc1)C1CC1)c2O (centres unmarked) [Example 174, 3-(Cyclopropylphenylmethyl)-5,6,7,8,9,10-hexahydro-4-hydroxy-10-(1-oxopropyl)-2H-cycloocta[b]pyran-2-one]",35.8,75,95.9,104,97.8,35 nM,,,,11.4,,,,,,
"O=c1oc2c(c(O)c1C(c1cccc(NS(=O)(=O)c3cccc4nsnc34)c1)C1CC1)CCCCCC2 (centres unmarked) [Example 340, N-[3-[Cyclopropyl(5,6,7,8,9,10-hexahydro-4-hydroxy-2-oxo-2H-cycloocta[b]pyran-3-yl)methyl]phenyl]-2,1,3-benzothiadiazole-4-sulfonamide]",93.2,90.9,96.5,101,96.5,1.9 nM,,,,77.8,,,,,,
